Measured values published in patent US20070185167A1, “SODIUM SALTS OF 5-[4-[2-(N-METHYL-N-(2-PYRIDYL)AMINO)ETHOXY]BENZYL]THIAZOLIDINE-2,4-DIONE” (SmithKline Beecham p.l.c., priority 2000, published 2007).

Columns and labels:
[1] = especially under humid conditions
[2] = 25° C and 75% relative humidity, approximately constant weight
Excerpt: For the avoidance of doubt when used herein the terms “non-hygroscopic”, “slightly hygroscopic”, “moderately hygroscopic” and “very hygroscopic” are to have the meanings defined by the above mentioned criteria.

solid state stability [1]: good solid state stability
hygroscopicity classification (% weight gain) [2]: non-hygroscopic (<2%)
SMILES: CN(CCOc1ccc(CC2SC(=O)NC2=O)cc1)c1ccccn1.[Na] (centres unmarked) [Sodium Salt, 5-[4-[2-(N-Methyl-N-(2-pyridyl)amino)ethoxy]benzyl]thiazolidine-2,4-dione, Sodium Salt]
